Data as given in US12122778B2, “Activating pyruvate kinase R” (Novo Nordisk Health Care AG, priority 2018, dated 2024).

Key:
PKR(G332S) = PKR(G332S) (Homo sapiens, UniProt P30613, G332S); test: Luminescence Biochemical Assay (Kinase Glo Plus), PKR G332S mutant; conditions: with FBP; for activation at 1.54 µM: 1.54 μM compound, read-out: AC50 LUM KGP FBP % Fold@1.54 μM mean; for AC50: read-out: AC50 LUM KGP FBP AC50 μM gmean (column A); for Emax: read-out: AC50 LUM KGP FBP MAX % FOLD mean
Method: (§1) In some embodiments, a PKR Activating Compound can have: (1) an AC50 value of less than 0.1 μM (e.g., compounds with AC50 values of “+++” in Table 13), 0.1-1.0 μM (e.g., compounds with AC50 values of “++” in Table 13), or 1.01-40 μM (e.g., compounds with AC50 values of “+” in Table 13); (2) a MAX % Fold of 75%-250%, 250-500%, or 75%-500%; and/or (3) a % Fold@1.54 μM of 75%-250%, 250-500%, or 75%-500%. In some embodiments, a PKR Activating Compound has (1) an AC50 value of less than 1.0 μM; (2) a MAX % Fold of 75%-500%; and/or (3) a % Fold@1.54 μM of 75%-500%.
(§2) The phosphorylation of Adenosine-5′-diphosphate (ADP) by various mutants of PKR was determined by the Kinase Glo Plus Assay (Promega) in the presence or absence of FBP [D-Fructose-1,6-diphosphate; BOC Sciences, CAS: 81028-91-3] as follows. Unless otherwise indicated, all reagents were purchased from Sigma-Aldrich. All reagents were prepared in buffer containing 50 mM Tris-HCl, 100 mM KCl, 5 mM MgCl2, and 0.01% Triton X100, 0.03% BSA, and 1 mM DTT. Enzyme and PEP [Phospho(enol) pyruvic acid] were added at 2× to all wells of an assay-ready plate containing serial dilutions of test compounds or DMSO vehicle. Final enzyme concentrations for PKR(wt), PKR(R510Q), and PKR(G332S) were 0.8 nM, 0.8 nM, and 10 nM respectively. Final PEP concentration was 100 μM. The Enzyme/PEP mixture was incubated with compounds for 30 minutes at RT before the assay was initiated with the addition of 2×ADP [Adenosine-5′-diphosphate] and KinaseGloPlus. Final concentration of ADP was 100 μM. […] For assays containing FBP, that reagent is added at 30 μM upon reaction initiation. Reactions were allowed to progress for 45 minutes at RT until luminescence was recorded by the BMG PHERAstar FS Multilabel Reader. All compounds were tested in triplicate at concentrations ranging from 42.5 μM to 2.2 nM in 0.83% DMSO.
(§3) Luminescence values were converted to % Fold increase by normalizing to the average of the DMSO control and multiplying by 100. Max, min, slope and AC50 were determined by the standard four parameter fit algorithm of ActivityBase XE Runner. Compounds were evaluated with three parameters—AC50, MAX % Fold, and % Fold@1.54 μM (FIG. 1). The AC50 value for a compound is the concentration (μM) corresponding to the midway between the maximum and minimum values of the four parameter logistic curve fit (i.e., at which the % fold increase along the four parameter logistic curve fit is halfway between MAX % Fold and MIN % Fold (% Fold Midpoint)), MAX % Fold is the highest fold increase observed at any concentration of compound, and % Fold@1.54 μM is the fold increase at a compound concentration of 1.54 μM. The parameter % Fold@1.54 μM was selected to capture elements of both the AC50 and MAX % Fold and to provide a ranking based on both potency and effect. The compound concentration of 1.54 μM was chosen as one that can optimally differentiate the set of compounds based on the range of activities observed.
(§4) As set forth in Table 13 below, AC50 values (columns A, D, G) are defined as follows: ≤0.1 μM (+++); >0.1 μM and ≤1.0 μM (++); >1.0 μM and ≤40 μM (+); >40 μM (0). Max % FOLD values (columns B, E, H) are defined as follows: ≤75% (+); >75% and ≤250% (++); >250% and ≤500% (+++). % Fold@1.54 μM values (columns C, F, J) are defined as follows: ≤75% (+); >75% and ≤250% (++); >250% and ≤50000 (+++).

PKR(R510Q) = PKR(R510Q) (Homo sapiens, UniProt P30613, R510Q); test: Luminescence Biochemical Assay (Kinase Glo Plus), PKR R510Q mutant; conditions: without FBP; for activation at 1.54 µM: 1.54 μM compound, read-out: AC50 LUM KGP woFBP % Fold@1.54 μM mean; for AC50: read-out: AC50 LUM KGP woFBP AC50 μM gmean; for Emax: read-out: AC50 LUM KGP woFBP MAX % FOLD mean
Method: as §1, §2, §3, §4

PKR(wt) = PKR(wt) (Homo sapiens, UniProt P30613); test: Luminescence Biochemical Assay (Kinase Glo Plus), wild type PKR; conditions: without FBP; for activation at 1.54 µM: 1.54 μM compound, read-out: AC50 LUM KGP woFBP % Fold@1.54 μM mean; for AC50: read-out: AC50 LUM KGP woFBP AC50 μM gmean; for Emax: read-out: AC50 LUM KGP woFBP MAX % FOLD mean
Chain of PKR(wt) (P30613 whole entry): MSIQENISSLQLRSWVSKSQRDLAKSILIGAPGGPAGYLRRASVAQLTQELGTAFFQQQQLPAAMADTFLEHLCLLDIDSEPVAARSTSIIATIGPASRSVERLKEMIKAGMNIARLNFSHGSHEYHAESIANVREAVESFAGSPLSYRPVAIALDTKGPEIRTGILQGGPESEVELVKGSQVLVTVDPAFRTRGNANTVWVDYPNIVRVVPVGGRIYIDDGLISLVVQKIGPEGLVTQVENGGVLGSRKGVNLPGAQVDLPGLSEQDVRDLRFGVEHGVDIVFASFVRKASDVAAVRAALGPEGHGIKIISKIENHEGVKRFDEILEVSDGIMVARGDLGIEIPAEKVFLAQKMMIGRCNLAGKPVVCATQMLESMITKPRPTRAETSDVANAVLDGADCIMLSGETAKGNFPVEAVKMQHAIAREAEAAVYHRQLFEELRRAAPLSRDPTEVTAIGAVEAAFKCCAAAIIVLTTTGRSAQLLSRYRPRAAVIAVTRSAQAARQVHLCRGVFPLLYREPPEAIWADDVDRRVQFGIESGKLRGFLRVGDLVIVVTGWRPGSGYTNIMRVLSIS

Chain of PKR(G332S) (P30613 whole entry G332S): as the sequence (P30613 whole entry) above, with G332S counted along it
Chain of PKR(R510Q) (P30613 whole entry R510Q): as the sequence (P30613 whole entry) above, with R510Q counted along it

| SMILES | activation at 1.54 µM (PKR(G332S)) [%] | AC50 (PKR(G332S)) [µM] | Emax (PKR(G332S)) [%] | activation at 1.54 µM (PKR(R510Q)) [%] | AC50 (PKR(R510Q)) [µM] | Emax (PKR(R510Q)) [%] | activation at 1.54 µM (PKR(wt)) [%] | AC50 (PKR(wt)) [µM] | Emax (PKR(wt)) [%] |
| --- | --- | --- | --- | --- | --- | --- | --- | --- | --- |
| O=C(NCc1cnco1)N1CC2=C(C1)CN(S(=O)(=O)c1ccc(F)cc1)C2 [Example 5-1, 5-(4-Fluorophenylsulfonyl)-N-(oxazol-5-ylmethyl)-3,4,5,6-tetrahydropyrrolo[3,4-c]pyrrole-2(1H)-carboxamide] | 75 to 250 | 0.1 to 1 | 75 to 250 | 75 to 250 | 1 to 40 | 75 to 250 | – | – | – |
| COc1ccc(CNC(=O)N2CC3=C(C2)CN(S(=O)(=O)c2ccc(F)cc2)C3)cc1 [Example 20-3] | 75 to 250 | ≤ 0.1 | 75 to 250 | 250 to 50000 | 0.1 to 1 | 250 to 500 | – | – | – |
| COc1cccc(CNC(=O)N2CC3=C(C2)CN(S(=O)(=O)c2ccc(F)cc2)C3)c1 [Example 20-4, 5-(4-Fluorobenzenesulfonyl)-N-[(3-methoxyphenyl)methyl]-1H,2H,3H,4H,5H,6H-pyrrolo[3,4-c]pyrrole-2-carboxamide] | 75 to 250 | 0.1 to 1 | 75 to 250 | 75 to 250 | 0.1 to 1 | 75 to 250 | – | – | – |
| COc1ccc(CNC(=O)N2CC3=C(C2)CN(S(=O)(=O)c2cccc4cnccc24)C3)cc1 [Example 20-11, 5-(Isoquinoline-5-sulfonyl)-N-[(4-methoxyphenyl)methyl]-1H,2H,3H,4H,5H,6H-pyrrolo[3,4-c]pyrrole-2-carboxamide] | 75 to 250 | 1 to 40 | 75 to 250 | 75 to 250 | ≤ 0.1 | 75 to 250 | – | – | – |
| COc1cccc(CNC(=O)N2CC3=C(C2)CN(S(=O)(=O)c2cccc4cnccc24)C3)c1 [Example 20-12, 5-(Isoquinoline-5-sulfonyl)-N-[(3-methoxyphenyl)methyl]-1H,2H,3H,4H,5H,6H-pyrrolo[3,4-c]pyrrole-2-carboxamide] | 75 to 250 | 1 to 40 | 75 to 250 | 75 to 250 | 1 to 40 | 75 to 250 | – | – | – |
| O=C(NCc1ccc(F)cc1)N1CC2=C(C1)CN(S(=O)(=O)c1ccc(F)cc1)C2 [Example 20-20, 5-(4-Fluorobenzenesulfonyl)-N-[(4-fluorophenyl)methyl]-1H,2H,3H,4H,5H,6H-pyrrolo[3,4-c]pyrrole-2-carboxamide] | 75 to 250 | ≤ 0.1 | 75 to 250 | 75 to 250 | 0.1 to 1 | 250 to 500 | – | – | – |
| O=C(NCc1ccc(F)cc1)N1CC2=C(C1)CN(S(=O)(=O)c1ccc3occc3c1)C2 [Example 20-23, 5-(1-Benzofuran-5-sulfonyl)-N-[(4-fluorophenyl)methyl]-1H,2H,3H,4H,5H,6H-pyrrolo[3,4-c]pyrrole-2-carboxamide] | 75 to 250 | 1 to 40 | 75 to 250 | 75 to 250 | 0.1 to 1 | 250 to 500 | – | – | – |
| O=C(NCc1ccc(F)cc1)N1CC2=C(C1)CN(S(=O)(=O)c1cccc3nonc13)C2 [Example 20-24, 5-(2,1,3-Benzoxadiazole-4-sulfonyl)-N-[(4-fluorophenyl)methyl]-1H,2H,3H,4H,5H,6H-pyrrolo[3,4-c]pyrrole-2-carboxamide] | 75 to 250 | 1 to 40 | 75 to 250 | 75 to 250 | 0.1 to 1 | 250 to 500 | – | – | – |
| CC(C)Oc1ccc(CNC(=O)N2CC3=C(C2)CN(S(=O)(=O)c2ccc4ncsc4c2)C3)cc1 [Example 21-31, 5-(1,3-Benzothiazole-6-sulfonyl)-N-{[4-(propan-2-yloxy)phenyl]methyl}-1H,2H,3H,4H,5H,6H-pyrrolo[3,4-c]pyrrole-2-carboxamide] | – | – | – | 75 to 250 | 1 to 40 | 75 to 250 | 75 to 250 | 1 to 40 | 75 to 250 |

Results, then the molecule that gave them:

| activation at 1.54 µM (PKR(G332S)) [%] | AC50 (PKR(G332S)) [µM] | Emax (PKR(G332S)) [%] | activation at 1.54 µM (PKR(R510Q)) [%] | AC50 (PKR(R510Q)) [µM] | Emax (PKR(R510Q)) [%] | activation at 1.54 µM (PKR(wt)) [%] | AC50 (PKR(wt)) [µM] | Emax (PKR(wt)) [%] | SMILES |
| --- | --- | --- | --- | --- | --- | --- | --- | --- | --- |
| 75 to 250 | 1 to 40 | 75 to 250 | 75 to 250 | 1 to 40 | 75 to 250 | – | – | – | Cc1noc(C)c1S(=O)(=O)N1CC2=C(CN(C(=O)[C@H](O)c3ccccc3)C2)C1 [Example 18-44, (2R)-1-{5-[(dimethyl-1,2-oxazol-4-yl)sulfonyl]-1H,2H,3H,4H,5H,6H-pyrrolo[3,4-c]pyrrol-2-yl}-2-hydroxy-2-phenylethan-1-one] |
| 75 to 250 | 0.1 to 1 | 75 to 250 | 75 to 250 | 1 to 40 | 75 to 250 | – | – | – | Cc1nc(S(=O)(=O)N2CC3=C(CN(C(=O)[C@H](C)c4ccccc4)C3)C2)cn1C [Example 19-3, (2R)-1-{5-[(1,2-dimethyl-1H-imidazol-4-yl)sulfonyl]-1H,2H,3H,4H,5H,6H-pyrrolo[3,4-c]pyrrol-2-yl}-2-phenylpropan-1-one] |
| 75 to 250 | 0.1 to 1 | 75 to 250 | 75 to 250 | 1 to 40 | 75 to 250 | – | – | – | Cc1nc(S(=O)(=O)N2CC3=C(CN(C(=O)C(C)n4cnc5ccccc54)C3)C2)cn1C (stereo not drawn) [Example 19-9, 2-(1H-Benzo[d]imidazol-1-yl)-1-(5-((1,2-dimethyl-1H-imidazol-4-yl)sulfonyl)-3,4,5,6-tetrahydropyrrolo[3,4-c]pyrrol-2(1H)-yl)propan-1-one] |
| 75 to 250 | ≤ 0.1 | 75 to 250 | 75 to 250 | 0.1 to 1 | 250 to 500 | – | – | – | COc1ccccc1CNC(=O)N1CC2=C(C1)CN(S(=O)(=O)c1ccc(F)cc1)C2 [Example 20-6, 5-(4-Fluorobenzenesulfonyl)-N-[(2-methoxyphenyl)methyl]-1H,2H,3H,4H,5H,6H-pyrrolo[3,4-c]pyrrole-2-carboxamide] |
| 75 to 250 | 1 to 40 | 75 to 250 | 75 to 250 | 0.1 to 1 | 75 to 250 | – | – | – | COc1cccc(CNC(=O)N2CC3=C(C2)CN(S(=O)(=O)c2cccc(F)c2)C3)c1 [Example 20-8, 5-(3-Fluorobenzenesulfonyl)-N-[(3-methoxyphenyl)methyl]-1H,2H,3H,4H,5H,6H-pyrrolo[3,4-c]pyrrole-2-carboxamide] |
| 75 to 250 | 1 to 40 | 75 to 250 | 75 to 250 | 0.1 to 1 | 250 to 500 | – | – | – | COc1ccccc1CNC(=O)N1CC2=C(C1)CN(S(=O)(=O)c1cccc3nonc13)C2 [Example 20-19, 5-(2,1,3-Benzoxadiazole-4-sulfonyl)-N-[(2-methoxyphenyl)methyl]-1H,2H,3H,4H,5H,6H-pyrrolo[3,4-c]pyrrole-2-carboxamide] |
| – | – | – | 250 to 50000 | 0.1 to 1 | 250 to 500 | 250 to 50000 | 0.1 to 1 | 250 to 500 | Cc1cccc(CNC(=O)N2CC3=C(C2)CN(S(=O)(=O)c2ccc4ncsc4c2)C3)n1 [Example 21-32, 5-(1,3-Benzothiazole-6-sulfonyl)-N-[(6-methylpyridin-2-yl)methyl]-1H,2H,3H,4H,5H,6H-pyrrolo[3,4-c]pyrrole-2-carboxamide] |
